# Patent publication US20260193250A1, “TOLL-LIKE RECEPTOR 7 AGONISTS AS IMMUNE-STIMULATORS TO ELICIT THE INNATE ANTITUMOR IMMUNITY” (Merck Patent GmbH, priority 2022, published 2026)
# Tested on: Peripheral blood mononuclear cells (PBMC)
# Assay: TNFα secretion from PBMCs
# Format: cell-based
# Conditions: human PBMCs, 18 hours incubation, MILLIPLEX bead panel
# Procedure: Peripheral blood mononuclear cells (PBMC) were isolated from healthy human volunteers and banked in liquid nitrogen. Vial of frozen PBMC was thawed in 37° C. water bath for no more than 2 minutes. The contents of the tube were aseptically transferred to pre-warmed complete media containing RPMI basal media (Gibco-21875034) supplemented with 10% HI-FBS (Aus origin) (Gibco-10100-147) and 1% penicillin/streptomycin (Gibco-15140-122-100 ml) followed by centrifugation. Cells were resuspended in complete media (3 ml) and counted using haemocytometer.
# All selected compounds (Five benchmark and 15 example molecules) were prepared in 100% DMSO (Sigma-D2650) (10 mM stock). The compounds were serially diluted in 100% DMSO (4 fold) up to 8 point DRC in U-bottom 96 well plate (Cellstar-650180). 3 μl of this serially diluted DRC was mixed with 97 μl of completed media (1:33.33) as intermediate dilution (300 μM) 3% DMSO. 11 μl of compounds from intermediate dilution was added to the PBMC plate (1:10) such that final concentration of DMSO in the culture plate is 0.3% and starting concentration of the compounds is 30 μM. Resiquimod (30 μM) and DMSO (0.3%) were used as positive and negative controls respectively.
# The plate was incubated at 37° C. with 5% CO2 for 18 hours. Post incubation, the plate was spun at 2000 rpm for 5 min and supernatant was gently aspired and collected in protein low binding V-bottom 96 well plates (Thermo Fisher-249944). The supernatant plates were sealed, labelled appropriately and stored at −80° C. till cytokine analysis (<1 month).
# MILLIPLEX MAP Human Cytokine/Chemokine Magnetic Bead Panel kit (HCYTOMAG-60K) was used for measuring TNF alpha as per the kit's recommendation.
# EC50 were determined using Graph Pad Prism Statistical software (Version 7.05), with individual data points represent the absorbance values of duplicates.
row,SMILES,EC50
1,CCOCc1nc2c(N)nc3ccccc3c2n1CC(C)(C)OCCCCN1CCN(C)CC1 [Example 3],< 100 nM
2,CCOCc1nc2c(N)nc3ccccc3c2n1CC(C)(C)OCCCCN1CCOCC1 [Example 7],100 to 1000 nM
3,CCOCc1nc2c(N)nc3ccccc3c2n1CC(C)(C)OCCCCN1CCN(CCN)CC1 [Example 11],1000 to 10000 nM
4,CCOCc1nc2c(N)nc3ccccc3c2n1CC(C)(C)OC(=O)CN [Example 19],< 100 nM
5,CCOCc1nc2c(N)nc3ccccc3c2n1CC(C)(C)OCCCCn1cc(CN)nn1 [Example 14],100 to 1000 nM
6,CCOCc1nc2c(N)nc3ccccc3c2n1CC(C)(C)OCCCCCN1CCN(C)CC1 [Example 4],< 100 nM
7,CCNCc1nc2c(N)nc3ccccc3c2n1CC(C)(C)OCCCCN1CCN(C)CC1 [Example 18],1000 to 10000 nM
8,CCOCc1nc2c(N)nc3ccccc3c2n1CC(C)(C)OCCCCN1CCN(CC(C)(C)SC)CC1 [Example 27],1000 to 10000 nM
9,CCOCc1nc2c(N)nc3ccccc3c2n1CC(C)(C)OCCCCN1CCCCC1 [Example 8],1000 to 10000 nM
10,CCOCc1nc2c(N)nc3ccccc3c2n1CC(C)(C)OCCCCN1CCNCC1 [Example 10],100 to 1000 nM
11,CCOCc1nc2c(N)nc3ccccc3c2n1CC(C)(C)OCCCN1CCN(C)CC1 [Example 2],100 to 1000 nM
12,CCOCc1nc2c(N)nc3ccccc3c2n1CC(C)(C)OCCCCn1cc(CO)nn1 [Example 13],100 to 1000 nM
13,CCOCc1nc2c(N)nc3ccccc3c2n1CC(C)(C)OCCCCN1CCCC1 [Example 9],> 10000 nM
